From PMC11576293, “New series of 4,6-diaryl pyrimidines: facile synthesis and antiproliferative activity as dual EGFR/VEGFR-2 inhibitors” (Frontiers in Chemistry, 2024)
Values joined by “and” are separate entries in the source; they are usually repeats but may differ in a detail not shown here. Equal entries are not always repeated.

Legend:
MDA-MB-435 = assay: NCI-60 single-dose screen; type: cell-based; details: Homo sapiens, single dose 10 µM, '-' = no inhibition, read-out: % Growth Inhibition
Method in brief: (§1)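 Single concentration (10 μM) per compound, assayed by the NCI DTP against its 60-line panel covering leukemia, lung, colon, CNS, melanoma, ovarian, renal, prostate and breast cancers.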

MDA-MB231/ATCC = assay: NCI-60 single-dose screen; type: cell-based; details: Homo sapiens, MDA-MB-231, single dose 10 µM, '-' = no inhibition, read-out: % Growth Inhibition
Method in brief: as §1

HL-60(TB) = assay: NCI-60 single-dose screen; type: cell-based; details: Homo sapiens, single dose 10 µM, '-' = no inhibition, read-out: % Growth Inhibition
TK-10 = assay: NCI-60 single-dose screen; type: cell-based; details: Homo sapiens, single dose 10 µM, '-' = no inhibition, read-out: % Growth Inhibition
Method in brief: as §1

SN12C = assay: NCI-60 single-dose screen; type: cell-based; details: Homo sapiens, single dose 10 µM, '-' = no inhibition, read-out: % Growth Inhibition
Method in brief: as §1

UACC-257 = assay: NCI-60 single-dose screen; type: cell-based; details: Homo sapiens, single dose 10 µM, '-' = no inhibition, read-out: % Growth Inhibition
Method in brief: as §1

K-562 = assay: NCI-60 single-dose screen; type: cell-based; details: Homo sapiens, K562, single dose 10 µM, '-' = no inhibition, read-out: % Growth Inhibition
Method in brief: as §1

EGFR = target: T1, EGFR (Homo sapiens, UniProt P00533); assay: EGFR-TK inhibitory assay; type: biochemical; details: read-out: EGFR inhibition IC50 ± SEM
T1 construct: amino acids 645–1186; His6 (N); made in house; host or cells: Sf-9 insect cells (baculovirus; pBlueBacHis2B / pFASTBacHTc)
T1 sequence (P00533 669-1210): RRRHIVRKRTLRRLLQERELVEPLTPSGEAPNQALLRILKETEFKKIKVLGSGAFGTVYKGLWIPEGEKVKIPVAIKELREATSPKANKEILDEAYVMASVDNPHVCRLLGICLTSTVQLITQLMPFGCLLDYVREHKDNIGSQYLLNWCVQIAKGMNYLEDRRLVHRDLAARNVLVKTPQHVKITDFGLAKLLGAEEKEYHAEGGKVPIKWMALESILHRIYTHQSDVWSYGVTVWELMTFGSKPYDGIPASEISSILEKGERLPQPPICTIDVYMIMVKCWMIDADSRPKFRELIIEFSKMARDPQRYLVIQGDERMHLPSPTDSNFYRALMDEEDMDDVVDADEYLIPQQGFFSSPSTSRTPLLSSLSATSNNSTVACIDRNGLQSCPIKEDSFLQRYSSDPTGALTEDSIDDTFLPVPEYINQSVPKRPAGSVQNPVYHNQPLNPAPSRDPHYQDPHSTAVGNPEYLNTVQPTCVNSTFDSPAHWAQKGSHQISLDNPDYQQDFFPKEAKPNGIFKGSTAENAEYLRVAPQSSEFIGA

[1] = Experimental lipophilicity by RP-TLC; type: physicochemical; details: for Experimental lipophilicity Co: concentration of MeOH at RM = 0, in % (unit assumed)
From the text: The RP-TLC method was used to measure the lipophilicity parameters (RMo, b, and Co) described in the experimental section. The mobile phase consisted of different proportions of water and organic modifier (MeOH). RF and RM values were obtained for each ratio of organic modifier/water system (Supplementary Table S3), and a linear regression analysis was achieved to obtain the lipophilicity chromatographic descriptors (RMo, b, and Co, see Table 6). Relative lipophilicity (RMo) describes the partitioning of the solute between pure water and nonpolar stationary phase. In contrast, the second lipophilicity parameter (Co) represents the concentration of organic modifier in the mobile phase in which the solute is equally distributed between two phases (i.e., RM = 0, and Rf = 0.5). Also, Co is known to be widely used in QSAR analysis as it embraces both the specific hydrophobic surface area of the solute and RMo. […] Finally, the slope of the regression line (b) was used as a descriptor of the specific hydrophobic surface area of the compound. In a series of structurally related compounds, b is linearly correlated with RMo, resulting in a linear relationship that is the basic feature of the chromatographic determination of lipophilicity. […] Moreover, substituents affected tested compounds’ measured lipophilicity parameter (RMo) values. Higher RMo values were found with lipophilic derivatives containing the benzyl group (14, 22, and 28), while lower RMo values were found with derivatives containing alkyl or allyl groups (19, 26, and 27). An interesting contradiction was found with experimental lipophilicity value of 28 and its congener 14, where compound 28 was found more lipophilic than its congener 14 even though it contains two methoxy groups and according to ChemDraw® and MolSoft® programs, derivative 14 should be more lipophilic while the MOE® program expects values matching our findings. […] Also, S-allyl derivatives were nearly equipotent to S-alkyl congeners as antiproliferative agents but quite different in terms of lipophilicity.

VEGFR-2 = VEGFR-2 (Homo sapiens, UniProt P35968); assay: VEGFR-2 inhibitory assay
Sequence of VEGFR-2 (P35968 20-1356): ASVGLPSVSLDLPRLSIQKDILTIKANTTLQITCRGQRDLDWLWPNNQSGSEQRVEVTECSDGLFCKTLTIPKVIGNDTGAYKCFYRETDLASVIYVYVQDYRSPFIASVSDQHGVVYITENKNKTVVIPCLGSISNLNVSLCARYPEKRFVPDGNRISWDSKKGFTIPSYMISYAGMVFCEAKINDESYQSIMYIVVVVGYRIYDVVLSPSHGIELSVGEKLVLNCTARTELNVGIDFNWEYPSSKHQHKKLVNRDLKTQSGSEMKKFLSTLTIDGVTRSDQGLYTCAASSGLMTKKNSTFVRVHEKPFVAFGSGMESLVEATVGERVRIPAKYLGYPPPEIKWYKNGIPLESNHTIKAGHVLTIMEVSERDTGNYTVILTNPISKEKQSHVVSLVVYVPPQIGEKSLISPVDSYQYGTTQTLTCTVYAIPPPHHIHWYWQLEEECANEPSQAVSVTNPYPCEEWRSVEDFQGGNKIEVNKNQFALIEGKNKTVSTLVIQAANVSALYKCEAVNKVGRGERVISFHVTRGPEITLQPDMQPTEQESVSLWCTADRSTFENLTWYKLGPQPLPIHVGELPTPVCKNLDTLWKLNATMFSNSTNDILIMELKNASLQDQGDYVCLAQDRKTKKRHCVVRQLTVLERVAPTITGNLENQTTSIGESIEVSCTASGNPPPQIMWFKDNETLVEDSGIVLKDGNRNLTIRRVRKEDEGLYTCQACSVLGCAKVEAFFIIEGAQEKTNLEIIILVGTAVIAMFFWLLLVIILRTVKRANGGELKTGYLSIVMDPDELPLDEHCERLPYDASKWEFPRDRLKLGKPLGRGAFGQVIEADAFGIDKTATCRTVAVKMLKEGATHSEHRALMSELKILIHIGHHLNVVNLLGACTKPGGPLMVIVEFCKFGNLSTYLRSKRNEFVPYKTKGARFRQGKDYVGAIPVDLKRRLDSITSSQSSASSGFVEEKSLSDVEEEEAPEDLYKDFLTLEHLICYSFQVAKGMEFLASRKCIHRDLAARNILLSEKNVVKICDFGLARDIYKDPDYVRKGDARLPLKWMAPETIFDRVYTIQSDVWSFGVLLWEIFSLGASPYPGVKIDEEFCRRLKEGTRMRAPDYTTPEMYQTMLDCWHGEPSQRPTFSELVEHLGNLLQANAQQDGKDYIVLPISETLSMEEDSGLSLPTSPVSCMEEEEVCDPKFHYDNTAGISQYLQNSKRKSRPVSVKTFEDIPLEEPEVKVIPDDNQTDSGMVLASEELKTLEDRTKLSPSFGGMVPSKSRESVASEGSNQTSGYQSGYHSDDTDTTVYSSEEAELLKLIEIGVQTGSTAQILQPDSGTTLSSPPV

SMILES | inhibition at 10 µM (MDA-MB-435) | inhibition at 10 µM (MDA-MB231/ATCC) | inhibition at 10 µM (HL-60(TB)) | inhibition at 10 µM (TK-10) | inhibition at 10 µM (SN12C) | inhibition at 10 µM (UACC-257) | inhibition at 10 µM (K-562) | IC50 (EGFR) | Experimental lipophilicity RMo ([1]; MeOH/water mobile phase) | Experimental lipophilicity b (slope) ([1]; MeOH/water mobile phase) | Experimental lipophilicity Co [1] | IC50 (VEGFR-2)
COc1ccc(-c2cc(-c3ccc(Cl)cc3)nc(SC)n2)cc1 [Compound 9, 4-(4-Chlorophenyl)-6-(4-methoxyphenyl)-2-(methylthio)pyrimidine] | 1.45% | 20.4% | 7.42% | < 0% | 11.2% | 5.09% | 18.6% |  |  |  |  | 
CCSc1nc(-c2ccc(Cl)cc2)cc(-c2ccc(OC)cc2)n1 [Compound 10, 4-(4-Chlorophenyl)-2-(ethylthio)-6-(4-methoxyphenyl)pyrimidine] | 8.38% | < 0% | 6.15% | 0.94% | 0.46% | < 0% | 11.5% |  |  |  |  | 
CCCSc1nc(-c2ccc(Cl)cc2)cc(-c2ccc(OC)cc2)n1 [Compound 11, 4-(4-Chlorophenyl)-6-(4-methoxyphenyl)-2-(propylthio)pyrimidine] | 1.63% | < 0% | 13.5% | < 0% | 6.25% | < 0% | 6.55% |  |  |  |  | 
COc1ccc(-c2cc(-c3ccc(Cl)cc3)nc(SC(C)C)n2)cc1 [Compound 12, 4-(4-Chlorophenyl)-2-(isopropylthio)-6-(4-methoxyphenyl)pyrimidine] | 8.92% | 4.87% | 32.6% | < 0% | 19.8% | 4.1% | 30.9% |  |  |  |  | 
C=CCSc1nc(-c2ccc(Cl)cc2)cc(-c2ccc(OC)cc2)n1 [Compound 13, 2-(Allylthio)-4-(4-chlorophenyl)-6-(4-methoxyphenyl)pyrimidine] | 5.34% | < 0% | 26.8% | < 0% | 6.62% | < 0% | 15.6% |  |  |  |  | 
COc1ccc(-c2cc(-c3ccc(Cl)cc3)nc(SCc3ccccc3)n2)cc1 [Compound 14, 2-(Benzylthio)-4-(4-chlorophenyl)-6-(4-methoxyphenyl)pyrimidine] | 3.68% | < 0% | 18.1% | < 0% | 10.4% | < 0% | 11.7% | 90 ± 7 nM | 7.024 ± 0.05913 | -0.074 ± 0.00066 | 91.3417 | 2.2 ± 0.02 nM
COc1ccc(CSc2nc(-c3ccc(Cl)cc3)cc(-c3ccc(OC)cc3)n2)cc1 [Compound 15, 2-(4-Methoxybenzylthio)-4-(4-chlorophenyl)-6-(4-methoxyphenyl)pyrimidine] | 2.38% | < 0% | 3.01% | < 0% | 11.3% | < 0% | 12.8% |  |  |  |  | 
COc1ccc(-c2cc(-c3cccc(OC)c3)nc(SC)n2)cc1 [Compound 16, 6-(3-Methoxyphenyl)-4-(4-methoxyphenyl)-2-(methylthio)pyrimidine] | 6.06% | 11% | 22.2% | < 0% | 17.9% | < 0% | 26.9% |  |  |  |  | 
CCSc1nc(-c2ccc(OC)cc2)cc(-c2cccc(OC)c2)n1 [Compound 17, 2-(Ethylthio)-6-(3-methoxyphenyl)-4-(4-methoxyphenyl)pyrimidine] | 2.52% | 6.41% | 18.6% | < 0% | < 0% | < 0% | 9.37% | 87 ± 6 nM |  |  |  | 1.85 ± 0.01 nM
CCCSc1nc(-c2ccc(OC)cc2)cc(-c2cccc(OC)c2)n1 [Compound 18, 6-(3-Methoxyphenyl)-4-(4-methoxyphenyl)-2-(propylthio)pyrimidine] | 5.12% | < 0% | 20.3% | < 0% | < 0% | < 0% | 12.8% |  |  |  |  | 
COc1ccc(-c2cc(-c3cccc(OC)c3)nc(SC(C)C)n2)cc1 [Compound 19, 2-(Isopropylthio)-6-(3-methoxyphenyl)-4-(4-methoxyphenyl)pyrimidine] | 3.92% | 17.3% | 22.6% | < 0% | 18.5% | < 0% | 29.5% | 83 ± 6 nM | 7.02 |  | 87.6579 and 91.32 | 2.7 ± 0.02 nM
C=CCSc1nc(-c2ccc(OC)cc2)cc(-c2cccc(OC)c2)n1 [Compound 20, 2-(Allylthio)-6-(3-methoxyphenyl)-4-(4-methoxyphenyl)pyrimidine] | 1.82% | < 0% | 31.3% | < 0% | 6.16% | < 0% | 11.8% |  |  |  |  | 
COc1ccc(-c2cc(-c3ccc(Cl)cc3)nc(SC)n2)cc1OC [Compound 23, 4-(4-Chlorophenyl)-6-(3,4-dimethoxyphenyl)-2-(methylthio)pyrimidine] | 18% | 23.2% | 18.4% | < 0% | 20.2% | 10% | 39% |  |  |  |  | 
CCSc1nc(-c2ccc(Cl)cc2)cc(-c2ccc(OC)c(OC)c2)n1 [Compound 24, 4-(4-Chlorophenyl)-2-(ethylthio)-6-(3,4-dimethoxyphenyl)pyrimidine] | 19.7% | 16.9% | 22.8% | < 0% | 22.8% | 13.5% | 41.5% |  |  |  |  | 
CCCSc1nc(-c2ccc(Cl)cc2)cc(-c2ccc(OC)c(OC)c2)n1 [Compound 25, 4-(4-Chlorophenyl)-6-(3,4-dimethoxyphenyl)-2-(propylthio)pyrimidine] | 0.34% | 16.2% | 15.5% | 11.6% | < 0% | 24.8% | 27.1% | 78 ± 5 nM |  |  |  | 2.95 ± 0.02 nM
COc1ccc(-c2cc(-c3ccc(Cl)cc3)nc(SC(C)C)n2)cc1OC [Compound 26, 4-(4-Chlorophenyl)-2-(isopropylthio)-6-(3,4-dimethoxyphenyl)pyrimidine] | 1.25% | 4.5% | 14.5% | < 0% | 8.05% | 0.69% | 6.67% |  | 6.45 |  | 86.518 and 90.64 | 
C=CCSc1nc(-c2ccc(Cl)cc2)cc(-c2ccc(OC)c(OC)c2)n1 [Compound 27, 2-(Allylthio)-4-(4-chlorophenyl)-6-(3,4-dimethoxyphenyl)pyrimidine] | 6.35% | 7.53% | 29.2% | < 0% | 14.3% | < 0% | 42% |  | 5.79 |  | 87.9561 and 86.52 | 
COc1ccc(-c2cc(-c3ccc(Cl)cc3)nc(SCc3ccccc3)n2)cc1OC [Compound 28, 2-(Benzylthio)-4-(4-chlorophenyl)-6-(3,4-dimethoxyphenyl)pyrimidine] | 15.2% | 23% | 21.4% | < 0% | 23.1% | 15.3% | 30.9% |  | 5.32 |  | 91.4199 and 87.18 | 
